# US20190255042A1, “APPLICATION OF HEDGEHOG PATHWAY INHIBITOR IN TREATING FIBROSIS DISEASES” (IMPACT THERAPEUTICS, INC, priority 2016, published 2019)
# Columns and labels:
# [1] = system: lung fibrosis model in mice induced by bleomycin; assay: Therapeutic efficacy in lung fibrosis model in mice induced by bleomycin; assay type: in vivo, C57BL/6 mice; conditions: n = 10, Mean ± Sem
# Method: Experimental Methods: 60 male C57BL/6 mice were randomize into 6 groups: Blank control group (Group 1, n=10), model group (Group 2, BLM, n=10), Compound A 10 mpk group (Group 3, n=10), compound A 20 mpk group (Group 4, n=10), Compound A 20 mpk +BIBF1120 50 mpk (Group 5, n=10), and BIBF1120 50 mpk positive reference group (Group 6, n=10). One week after the mice were acclimated to the environment, 10 mice in the blank control group were given 50 μl of normal saline in the trachea, and other 50 mice were given 50 μl BLM (0.66 mg/kg, 2 ml/kg) in the trachea. After BLM infusion, 50 mice in BLM infusion group were randomly assigned to start treatment on the 5th day, once a day, with a treatment cycle of 20 days. The whole process was 25 days. After the experiment, the lung tissues were fixed in 10% neutral formalin, dehydrated by alcohol gradient, embedded with paraffin, stained by hematoxylin-eosin (H&E) and Masson trichrome staining. And the inflammatory area and degree of fibrosis of the lung tissues in mice were evaluated by APERIO ScanScope. Immunohistochemical staining of lung tissue was performed to quantify α-SMA positive fibroblasts in lung tissue and to calculate the percentage (%) of α-SMA staining in the entire lung stroma.
# [2] = system: unilateral pulmonary fibrosis model in SD rats; assay: Prophylactic therapeutic efficacy in unilateral pulmonary fibrosis model in SD rats (bleomycin); assay type: in vivo; set-up: key to Fibrosis score (Ashcraft): Ashcraft semi-quantitative fibrosis score; Evaluation of injury and inflammatory lesions of left lung: Fibrotic lesion edge / Evaluation of injury and inflammatory lesions of left lung: Fibrosis lesion: scale not given here
# Method: 40 male SD rats were randomized into Model group (Group 1, n=8), positive drug group BIBF1120 60 mg/kg/d group (Group 2, n=8), Compound A 5 mg/kg/d group (Group 3, n=8), compound A 10 mg/kg/d group (Group 4, n=8) and Compound A 20 mg/kg/d (Group 5, n=8). On the modeling day, rats were anesthetized and exposed to trachea. Bleomycin was injected into trachea of each group (dosage: 3 mg/kg, volume: 1.0 ml/kg). Oral administration was performed 2 hours after modeling, once a day. On Day 15, all the animals were killed, the left lung was taken, the weight and volume of the left lung were measured, then fixed by formalin, the bronchioles were stained with HE, Masson trichrome. The bronchioles, final bronchiole and small pulmonary artery injury and inflammation invasion were evaluated by semi-quantitative score, and pulmonary fibrosis was evaluated by Ashcraft semi-quantitative score.
# [3] = system: unilateral pulmonary fibrosis model in SD rats; assay: Therapeutic efficacy in unilateral pulmonary fibrosis model in SD rats (bleomycin, dosing from D8); assay type: in vivo; set-up: Evaluation of injury and inflammatory lesions of left lung: Fibrotic lesion edge / Evaluation of injury and inflammatory lesions of left lung: Fibrosis lesion: scale not given here; conditions: for Expression of Type I collagen (%) / Expression of α-SMA protein (%): left lung immunohistochemistry; for Evaluation of injury and inflammatory lesions of left lung: Fibrosis lesion / Evaluation of injury and inflammatory lesions of left lung: Fibrotic lesion edge: HE score; for Fibrosis area (left pulmonary): Masson trichrome
# Method: On the modeling day, rats were anesthetized and exposed to trachea. Bleomycin was injected into left trachea of each group (dosage: 3 mg/kg, volume: 1.0 ml/kg). Oral administration was performed on Day 8 after modeling, once a day. On Day 22, according to the KCI animal euthanasia SOP, animals in each group were given an overdose of sodium barbiturate and sacrificed under intraperitoneal anesthesia, the left lung was taken, the weight and volume of the left lung were measured, then fixed by formalin, the bronchioles were stained with HE, Masson trichrome. The bronchioles, final bronchiole and small pulmonary artery injury and inflammation invasion were evaluated by semi-quantitative score, and pulmonary fibrosis was evaluated by Ashcraft semi-quantitative score. Immunohistochemical staining of α-SMA, Type I collagen (Collagen-I) were performed at the same time, a full scan was performed by Hamamatsu NanoZoomer Digital Pathology (S210), the α-SMA positive area was semiquantitatively calculated from the unit area of the whole sheelt in pulmonary fibrosis foci, and the positive staining area of type-I collagent per unit of area was calculated.
# [4] = system: bleomycin-induced lung injury in a mouse model; conditions: Moshai et al., 2014; cited from earlier work
# [5] = system: foodborne non-alcoholic fatty hepatitis (NASH) model in mice; conditions: Hirsova et al., Plos One 2013; cited from earlier work
# [6] = 60 mg/kg/d oral from modeling day, D15, HE score, mean ± sem, n = 8
# [7] = 60 mg/kg/d oral from modeling day, D15, mean ± sem, n = 8
# [8] = 100 mpk oral D8 to D22, mean ± sem, n = 6
# [9] = 100 mpk oral D8 to D22 after modeling, mean ± sem
# [10] = 50 mpk oral D8 to D22, mean ± sem, n = 8
# [11] = 50 mpk oral D8 to D22 after modeling, mean ± sem
compound,measurement,setting,value
"COC(=O)c1ccc2c(c1)NC(=O)/C2=C(\Nc1ccc(N(C)C(=O)CN2CCN(C)CC2)cc1)c1ccccc1 [BIBF1120, Nintedanib ethylsulfonate, reference compound]",Inflammatory infiltration area,[1]; 50 mpk oral D5 to D25,4.33 ± 1.39 mm^2
same,Total lung tissue area,[1]; 50 mpk oral D5 to D25,87.02 ± 4.05 mm^2
same,Percentage of inflammatory area (%),"[1]; 50 mpk oral D5 to D25, ###p < 0.001 vs. BLM model group",4.67 ± 1.32^### %
same,Percentage of positive α-SMA (%),"[1]; BIBF1120 50 mpk oral D5 to D25, lung tissue immunohistochemical staining",0.96 ± 0.20%
same,Evaluation of injury and inflammatory lesions of left lung: Fibrosis lesion,[2]; [6],7.88 ± 0.48
same,Evaluation of injury and inflammatory lesions of left lung: Fibrotic lesion edge,[2]; [6],5.50 ± 0.25
same,Fibrosis area (left pulmonary fibrosis),"[2]; 60 mg/kg/d oral from modeling day, D15, Masson trichrome, mean ± sem, n = 8",77.85 ± 10.90
same,Fibrosis Score 1-3 (%),[2]; [7],75.00 ± 23.90%
same,Fibrosis Score 4-8 (%),[2]; [7],25.00 ± 23.90%
same,Fibrosis score (Ashcraft),[2]; [7],3.15 ± 0.65
same,Volume of left lung,[2]; [7],1.24 ± 0.17 cm^3
same,Weight of left lung,[2]; [7],1.18 ± 0.14 g
same,average score of fibrosis in the entire fibrosis lesion (ashcraft),"[2]; BIBF1120 60 mg/kg/d, compound A 5, 10, 20 mg/kg/d",about 3 points
same,Expression of Type I collagen (%),[3]; [8],18.99 ± 1.19%
same,Expression of α-SMA protein (%),[3]; [8],7.36 ± 0.55%
same,Evaluation of injury and inflammatory lesions of left lung: Fibrosis lesion,[3]; [9],7.00 ± 0.36
same,Evaluation of injury and inflammatory lesions of left lung: Fibrotic lesion edge,[3]; [9],5.31 ± 0.28
same,Fibrosis area (left pulmonary),[3]; [9],73.81 ± 1.14
same,Fibrosis Score 1-3 (%),[3]; [9],88.33 ± 4.01%
same,Fibrosis Score 4-8 (%),[3]; [9],11.67 ± 4.01%
same,Fibrosis score (Ashcraft),[3]; [9],2.55 ± 0.18
same,Volume of left lung,[3]; [9],1.23 ± 0.09 cm^3
same,Weight of left lung,[3]; [9],1.31 ± 0.09 g
CN(C)c1ccccc1CN1CCCN(Cc2ccccc2N(C)C)C1c1ccncc1 [GANT61],efficacy on pulmonary fibrosis,[4],good therapeutic effect
"CS(=O)(=O)c1ccc(C(=O)Nc2ccc(Cl)c(-c3ccccn3)c2)c(Cl)c1 [GDC0449, vismodegib, reference compound]","effect on liver injury, hepatic inflammation and fibrosis",[5],attenuating hepatic inflammation and fibrosis
same,efficacy on pulmonary fibrosis,[4],no efficacy
same,damage and inflammatory response of terminal bronchioles within fibrosis lesions and pulmonary small artery compared with model group,"[3]; 14 consecutive days, BIBF1120 100, Compound A 5, 15, 30, GDC0449 50 mg/kg/d, p<0.001",significantly reduced
same,Expression of Type I collagen (%),[3]; [10],19.06 ± 0.70%
same,Expression of α-SMA protein (%),[3]; [10],7.74 ± 0.59%
same,Evaluation of injury and inflammatory lesions of left lung: Fibrosis lesion,[3]; [11],6.38 ± 0.17
same,Evaluation of injury and inflammatory lesions of left lung: Fibrotic lesion edge,[3]; [11],4.80 ± 0.22
same,Fibrosis area (left pulmonary),[3]; [11],67.96 ± 3.70
same,Fibrosis Score 1-3 (%),[3]; [11],95.00 ± 2.67%
same,Fibrosis Score 4-8 (%),[3]; [11],5.00 ± 2.67%
same,Fibrosis score (Ashcraft),[3]; [11],2.16 ± 0.11
same,Weight of left lung,[3]; [11],1.29 ± 0.09 g
same,degree of pulmonary fibrosis (Ashcraft score) compared with model group,"[3]; BIBF1120 100, Compound A 5, 15, 30, GDC0449 50 mg/kg/d, p<0.01",significantly better
same,amount of Type I collagen deposition in the fibrotic lesions compared with model group,"[3]; BIBF1120 100 mpk, Compound A 5 mpk, GDC0449 50 mpk",no significant difference
same,positive rate of α-SMA in fibrosis lesions per unit area compared with model group,"[3]; BIBF1120 100 mpk, GDC0449 50 mpk",no significant difference
same,treatment effect on fibrosis compared with BIBF1120 100 mg/kg/d,"[3]; compound A 5, 15 and 30 mg/kg, GDC0449 50 mg/kg/d, 14 consecutive days",the same as that of BIBF1120
